Structures can show the parent of a compound that is named as a salt.
Experiments:
Format in all cases: physicochemical
[1] = Stability of unpacked tablets at 40° C.±2° C. and 75%±5% RH (impurities); settings: 40°/75 RH
Description: (§1) One of the main objects of the present invention was to prepare a product with acceptable stability. For this reason 3 batches of each composition were exposed to normal, intermediate and accelerated stability studies according to the current ICH guidelines.
The tablets of the above compositions were exposed at a temperature of 40° C.±2° C. and relative humidity of 75%±5% without being packed in any type of container or blister. The tablets were tested in predetermined time intervals. The results for each composition are described in the stability table (TABLE 1).

[2] = Compatibility test of Atorvastatin alone and Atorvastatin with Attapulgite at 40° C./75% RH (impurities)
[3] = Stability after preparation and after 3 months in HDPE containers, normal and intermediate conditions (impurities); settings: for Atorvastatin Amide / Desfluoro: limit NMT 0.3%; for Atorvastatin Diepoxide: limit NMT 0.6%; for Diketo1,2-Diol + Diketoepoxide: limit NMT 1.20%; for Lactone: limit NMT 2%; for Total: total impurities; for Unknown: unknown impurity
Description: as §1
Subsequently, the tablets of compositions 2 were packed into white opaque, HDPE plastic […] C.±2° C. and relative humidity of 65%±5% for intermediate conditions. The results for composition 2 and of the active ingredient directly after preparation and after 3 months stability are described in the stability table below (TABLE 3).

- Atorvastatin Amide [1]: 0.07%
- Atorvastatin Diepoxide [1]: 0.34%
- Desfluoro [1]: 0.08%
- Diketo1,2-Diol + Diketoepoxide [1]: 0.69%
- Lactone [1]: 0.45%
- Total ([1]; total impurities): 1.87%
- Diketo1,2-Diol + Diketoepoxide ([2]; limit 1.20%): 0.39%
- Atorvastatin Amide ([2]; limit NMT 0.3%): 0.05%
- Desfluoro ([2]; limit NMT 0.3%): 0.07%
- Methyl Ester ([2]; limit NMT 0.3%): 0.01%
- Atorvastatin Diepoxide ([2]; limit NMT 0.6%): 0.20%
- Lactone ([2]; limit NMT 2%): 0.34%
- Total ([2]; total impurities): 1.29%
- Atorvastatin Amide ([3]; 0 months): 0.06%
- Desfluoro ([3]; 0 months): 0.06%
- Atorvastatin Diepoxide ([3]; 0 months): 0.25%
- Diketo1,2-Diol + Diketoepoxide ([3]; 0 months): 0.84%
- Lactone ([3]; 0 months): 0.07%
- Total ([3]; 0 months): 1.69%
- Unknown ([3]; 0 months): 0.34%
- Atorvastatin Amide ([3]; 3 months 25° C./60% RH): 0.06%
- Desfluoro ([3]; 3 months 25° C./60% RH): 0.03%
- Atorvastatin Diepoxide ([3]; 3 months 25° C./60% RH): 0.30%
- Diketo1,2-Diol + Diketoepoxide ([3]; 3 months 25° C./60% RH): 0.92%
- Lactone ([3]; 3 months 25° C./60% RH): 0.05%
- Total ([3]; 3 months 25° C./60% RH): 1.96%
- Unknown ([3]; 3 months 25° C./60% RH): 0.38%
- Atorvastatin Amide ([3]; 3 months 30° C./65% RH): 0.06%
- Desfluoro ([3]; 3 months 30° C./65% RH): 0.03%
- Atorvastatin Diepoxide ([3]; 3 months 30° C./65% RH): 0.38%
- Diketo1,2-Diol + Diketoepoxide ([3]; 3 months 30° C./65% RH): 1.10%
- Lactone ([3]; 3 months 30° C./65% RH): 0.05%
- Total ([3]; 3 months 30° C./65% RH): 2.12%
- Unknown ([3]; 3 months 30° C./65% RH): 0.4%
SMILES: CC(C)c1c(C(=O)Nc2ccccc2)c(-c2ccccc2)c(-c2ccc(F)cc2)n1CC[C@@H](O)C[C@@H](O)CC(=O)O (relative stereo) [Atorvastatin, [R—(R*,R*)]-2-(4-fluorophenyl)-b,d-dihydroxy-5-(1-methylethyl)-3-phenyl-4[(phenylamino)carbonyl]-1H -pyrrole-1-heptanoic acid, calcium salt (2:1) trihydrate]

— patent US20100196469A1, “Pharmaceutical Formulation containing an HMG-COA Reductase Inhibitor and method for the preparation thereof” (PHARMATHEN S.A., priority 2007, published 2010)
